“And” between values parts separate entries of the source, which are not always exact repeats. Equal values may be shown once.
What was measured:
BxPC-3 cells = assay: Flow cytometry to measure apoptosis in BxPC-3 cells; type: cell-based; conditions: 48 hours
Method: BxPC-3 cells were treated with cromolyn (10 μM) with (+) or without (−) gemcitabine (10 μM), and apoptosis was analyzed after 48 hours by flow cytometry. *, P<0.001 versus control, #, P=0.001 versus gemcitabine. Means and 95% confidence intervals of three independent experiments performed in triplicate are shown. Two-tailed two-sample (unpaired) Student's t-tests were used to determine P values. Standard propidium iodide (PI) staining by the hypotonic lysis method was used for apoptosis studies. Apoptosis was induced in 1.0×10^6 BxPC-3 cells by treatment with gemcitabine (10 μM), with or without cromolyn. After 48 hours the cells were detached from culture dishes by incubation in 0.05% trypsin-EDTA, washed once with cold PBS, and then incubated for 30 minutes in 500 μL of hypotonic solution (0.1% sodium citrate, 0.1% Triton X-100, 100 μg/mL RNAse, and 50 μg/mL PI), and analyzed by flow cytometry (EPICS XL, Beckman Coulter Inc, Fullerton, Calif.). Cells undergoing apoptosis that had lost part of their DNA were identified as the population of cells with sub-G1 DNA content. These assays were performed three times.

[1] = system: MPanc-96 orthotopic tumors; assay: Tumor growth and metastasis in scid mice, MPanc-96 orthotopic; type: in vivo; conditions: for liver metastasis, difference versus control / lung metastasis, difference versus control / tumor burden, difference versus control / lung metastasis, mean / liver metastasis, mean / tumor burden (primary tumor volume by bioluminescence), mean: MPanc-96; for lung metastasis, mean: control mean=5.9×10^7; for liver metastasis, mean: control mean=9.4×10^8; for tumor burden (primary tumor volume by bioluminescence), mean: end of six weeks, cromolyn 5 mg per kg daily i.p., gemcitabine 125 mg per kg bi-weekly i.p., control mean=1.1×10^10
Method: FIGS. 5A-5F show the effect of cromolyn on MPanc-96 tumor growth and metastasis in vivo. MPanc-96 cells stably expressing the firefly luciferase gene were injected orthotopically into 4-week-old male CB 17 scid mice. […] Mice were divided into four groups of five mice each with an equivalent mean tumor size between groups. […] One group was treated with water (control), one group received gemcitabine bi-weekly (125 mg per kg body weight bi-weekly by intraperitoneal injection), one group was administered cromolyn daily (5 mg per kg body weight daily by intraperitoneal injection), and the final group was given the combination of cromolyn and gemcitabine. All groups were treated for six weeks. Bioluminescent imaging was done weekly to assess tumor growth. […] Means and 95% confidence intervals from two independent experiments are shown (n=20). Two-tailed two-sample (unpaired) Student's t-tests were used to determine P values. The anti-tumorigenic capability of the drug cromolyn was assessed in 4-week-old male CB 17 scid mice (n=20) carrying orthopic tumors of BxPC-3, MPanc96, and Panc-1 cells stably expressing a Lenti-luc reporter. All mouse experiments were reviewed and approved by the Institutional Animal Care and Use Committee of UT MD Anderson Cancer Center. All mice were maintained in a sterile environment. Cages, bedding, food, and water were all autoclaved. All mice were maintained on a daily 12-hour light/12-hour dark cycle, according to the institutional animal welfare guidelines. BxPC-3, MPanc96, and Panc-1 cells carrying the Lenti-luc reporter gene were grown to 80% confluence, harvested by incubation with trypsin-EDTA, washed twice in PBS, and resuspended to a final concentration of 4.0×10^6 cells/mL. Each mouse (n=20 mice per cell line) was injected (into the pancreas) with cell suspensions (50 μL). […] This initial tumor volume was used to divide the mice into four groups of five mice each, such that the mean tumor size was equal between groups (FIGS. 4A, 5A, and 6A). To allow enough time to observe differences among treatment groups, the mice were followed for the next 5 weeks. One group of mice was then treated biweekly with a sub-maximal concentration of gemcitabine (125 mg per kg body weight by i.p. injection). A second group was treated with a daily injection of cromolyn (5 mg per kg body weight by i.p. injection). A third group was treated with both bi-weekly gemcitabine and daily cromolyn. The control group was treated daily with vehicle. Treatments were continued for 5 weeks, and the effects on the tumor burden and metastasis were analyzed by weekly bioluminescence imaging (FIGS. 4B, 5B, and 6B). At the end of the experiment the mice were anesthetized with 1.5% isofluorane/air mixture and killed by cervical dislocation. […] Before imaging, mice were placed in an acrylic chamber, anesthetized with 1.5% isofluorane/air mixture, and injected i.p. with 15 mg/mL of luciferin potassium salt in PBS at a dose of 150 mg per kg body weight. A digital grey scale image of each mouse was acquired, followed by acquisition and overlay of a pseudocolor image representing the spatial distribution of detected photons emerging from active luciferase within the mouse. Tumor volume was quantified as the sum of all detected photons within the region of the tumor per second. At the end of experiment, the mice were killed, and tumors were surgically removed and weighed. After the primary tumors were removed, cancer cell dissemination and metastasis was visualized using IVIS imaging, and metastatic colonies were counted. Subsequently, tissues were fixed with formaldehyde, and histology was used to verify the accuracy of the bioluminescence data.

Row | SMILES | effect on BxPC-3 cell apoptosis, cromolyn alone (BxPC-3 cells; cromolyn 10 μM) | liver metastasis, difference versus control [1] | lung metastasis, difference versus control [1] | tumor burden, difference versus control [1] | lung metastasis, mean [1] | liver metastasis, mean [1] | tumor burden (primary tumor volume by bioluminescence), mean [1] | effect on body weight ([1]; MPanc-96 model, up to 6 weeks) | apoptotic BxPC-3 cells, mean (BxPC-3 cells; gemcitabine 10 μM, cromolyn 10 μM, control mean=3.7%) | apoptotic BxPC-3 cells, difference versus control (BxPC-3 cells; gemcitabine 10 μM) [%]
1 | O=C(O)c1cc(=O)c2c(OCC(O)COc3cccc4oc(C(=O)O)cc(=O)c34)cccc2o1 [cromolyn, disodium 1,3-bis[(2′-carboxylatochromon-5′-yl)oxy]-2-hydroxypropane] | no statistically significant effect | 7.2×10^8 photons/sec | 5.6×10^7 photons/sec | 6.2×10^9 photons/sec | 3.2×10^6 photons/sec | 2.2×10^8 photons/sec | 4.8×10^9 photons/sec | no effect on body weight | – | –
2 | Nc1ccn([C@@H]2O[C@H](CO)[C@@H](O)C2(F)F)c(=O)n1 [gemcitabine] | – | 8.1×10^8 photons/sec | 5.4×10^7 photons/sec | 6.9×10^9 photons/sec | 5.0×10^6 photons/sec | 1.2×10^8 photons/sec | 4.1×10^9 photons/sec | – | 31.0% and 30.8% | 27.3
